The source of these data is patent publication US5416099A, “Fibrinogen receptor antagonists” (Merck & Co., Inc., priority 1993, dated 1995).

In general, IC50 refers to the concentration at which inhibition is half-maximal.

The subject of this experiment is Human platelets. The experiment is described as follows: ADP-stimulated platelet aggregation assay (gel-filtered human platelets). It counts as cell-based. The settings on record: fibrinogen 100 μg/ml, Ca^2+ 1 mM, 10 uM ADP, 37° C., read-out: platelet aggregation inhibition potency, IC50. Here is the method: An ADP-stimulated platelet aggregation assay was used to determine inhibition associated with compounds of the invention.
Human platelets were isolated from fresh blood, collected into acid citrate/dextrose by differential centrifugation followed by gel filtration on Sepharose 2B in divalent ion-free Tyrode's buffer (pH 7.4) containing 2% bovine serum albumin. Platelet aggregation was measured at 37° C. in a a Chronolog aggregometer. The reaction mixture contained gel-filtered human platelets (2×10^8 per ml), fibrinogen (100 μg/ml), Ca^2+ (1 mM), and the compound to be tested. Aggregation was initiated by adding 10 uM ADP 1 minute after the other components had been added. The reaction was allowed to proceed for at least 2 minutes. The extent of inhibition of aggregation was expressed as the percentage of the rate of aggregation observed in the absence of inhibitor. The IC50 is the dose of a particular compound inhibiting aggregation by 50% relative to a control lacking the compound.

For the molecule `O=C(O)CNC(=O)c1ccc2c(c1)C(=O)N(CCCC1CCNCC1)C2`, the IC50 amounted to 14 µM.

For the molecule `O=C(O)CCNC(=O)c1ccc2c(c1)C(=O)N(CCCC1CCNCC1)C2`, the IC50 was determined as 0.92 µM.
